Laboratory results taken from US4684637A, “Method of decreasing rate of heme metabolism” (The Rockefeller University, priority 1985, dated 1987).
Values joined by “and” are separate entries in the source; they are usually repeats but may differ in a detail not shown here. Equal values may be shown once.

Tests used:
Type in all cases: in vivo, rat
[1] = tested on: heme oxygenase; experiment: heme oxygenase activity in liver, kidney and spleen of neonatal rats treated with Cr-protoporphyrin
Method: (§1) The treated animals and the controls were assayed for heme oxygenase activity and bilirubin concentration. Since heme oxygenase is an essential component in the catabolism of heme, an increase in heme oxygenase activity is indicative of an increase in the rate of heme catabolism. Heme oxygenase was assyed as described by Maines and Kappas in J. Biol. Chem., 253, 2321-2326 (1978). Total bilirubin in serum was estimated by the method of Roth, Clin. Chem. Acta., 17, 487-492 (1967).
(§2) Similar studies were conducted with neonatal rats treated subcutaneously with 2 and 10 micromoles per kilogram of Cr-protoporphyrin soon after birth. Various organs were analyzed for heme oxygenase activity and bilirubin concentration. The results were compared with controls each of which were treated subcutaneously with 0.1 ml of saline.
The results for heme oxygenase activity in liver, kidney and spleen in nanamoles heme oxygenase per milligram microsomal protein per hour are shown below.

[2] = tested on: serum bilirubin; experiment: serum bilirubin in neonatal rats treated with Cr-protoporphyrin
Method: as §1, §2

[3] = tested on: heme oxygenase; experiment: hepatic heme oxygenase activity in neonatal rats treated with Sn-protoporphyrin
Method: (§3) To determine the efficacy of Sn-protoporphyrin for controlling the rate of heme metabolism, neonatal rats were injected subcutaneously at birth, and at 12, 24, 48 and 72 hours postnatally with 0.1 ml solutions of Sn-protoporphyrin. To prepare the solutions for parenteral injection, the material was taken up in a small volume of 0.2N sodium hydroxide, adjusted to pH 7.4 with one normal hydrochloric acid and made up to final volume with 0.9% sodium chloride. The compositions as prepared and used contained sufficient Sn-protoporphyrin to provide about 100 μmol/Kg body weight in each 0.1 ml injection. Control neonates received an equivalent volume of saline at each time point. Groups of neonates (6-30 animals per group) were sacrificed at selected time intervals.
as §1

[4] = tested on: serum bilirubin; experiment: total serum bilirubin in neonatal rats treated with Sn-protoporphyrin; details: about 100 μmol/Kg s.c. per injection
Method: as §3, §1

[5] = tested on: heme oxygenase; experiment: heme oxygenase activity (bilirubin production) in liver and kidney microsomes of adult rats treated with Sn-protoporphyrin; details: 50 μmol/Kg s.c.
Method: Studies were carried out with adult rats treated with Sn-protoporphyrin to determine the effect on heme oxygenase activity and bilirubin production. Three rats weighing about 230 grams each were injected subcutaneously with 50 μmol/Kg of Sn-protoporphyrin in isotonic saline at pH 8. Three controls were similiary treated with isotonic saline. The rats were sacrificed sixteen hours after treatment. The microsomal protein of the separate livers and of the three combined kidneys was estimated and heme oxygenase activity determined according to the method of Maines and Kappas. This procedure measures the heme oxygenase activity by determining the amount of bilirubin produced. The concentration unit for bilirubin is nanamoles bilirubin formed per milligram protein per hour.

[6] = neonatal rats, about 100 μmol/Kg s.c. per injection

C=CC1=C(C)c2cc3[n-]c(cc4[n-]c(cc5nc(cc1n2)C(C)=C5C=C)c(C)c4CCC(=O)[O-])c(CCC(=O)[O-])c3C.[Cr+3].[H+] [Cr-protoporphyrin]
effect on heme oxygenase ([1]; 2 and 10 μmol/Kg s.c., liver, kidney, spleen): immediate decrease in heme oxygenase | heme oxygenase activity ([1]; kidney, 2 μmol/Kg s.c. soon after birth, day 2): 0.36 nanamoles heme oxygenase per m | heme oxygenase activity ([1]; kidney, 2 μmol/Kg s.c. soon after birth, day 3): 0.72 nanamoles heme oxygenase per m | heme oxygenase activity ([1]; kidney, 2 μmol/Kg s.c. soon after birth, day 5): 0.94 nanamoles heme oxygenase per m | heme oxygenase activity ([1]; kidney, 2 μmol/Kg s.c. soon after birth, day 7): 1.17 nanamoles heme oxygenase per m | heme oxygenase activity ([1]; kidney, 2 μmol/Kg s.c. soon after birth, day 10): 1.67 nanamoles heme oxygenase per m | heme oxygenase activity ([1]; kidney, 2 μmol/Kg s.c. soon after birth, day 14): 0.74 nanamoles heme oxygenase per m | heme oxygenase activity ([1]; kidney, 2 μmol/Kg s.c. soon after birth, day 21): 0.61 nanamoles heme oxygenase per m | heme oxygenase activity ([1]; kidney, 2 μmol/Kg s.c. soon after birth, day 35): 0.58 nanamoles heme oxygenase per m | heme oxygenase activity ([1]; kidney, 10 μmol/Kg s.c. soon after birth, day 2): 0 nanamoles heme oxygenase per m | heme oxygenase activity ([1]; kidney, 10 μmol/Kg s.c. soon after birth, day 3): 0.42 nanamoles heme oxygenase per m | heme oxygenase activity ([1]; kidney, 10 μmol/Kg s.c. soon after birth, day 5): 0.59 nanamoles heme oxygenase per m | heme oxygenase activity ([1]; kidney, 10 μmol/Kg s.c. soon after birth, day 7): 0.48 nanamoles heme oxygenase per m | heme oxygenase activity ([1]; kidney, 10 μmol/Kg s.c. soon after birth, day 10): 0.34 nanamoles heme oxygenase per m | heme oxygenase activity ([1]; kidney, 10 μmol/Kg s.c. soon after birth, day 14): 0.41 nanamoles heme oxygenase per m | heme oxygenase activity ([1]; kidney, 10 μmol/Kg s.c. soon after birth, day 21): 0.16 nanamoles heme oxygenase per m | heme oxygenase activity ([1]; kidney, 10 μmol/Kg s.c. soon after birth, day 35): 0.45 nanamoles heme oxygenase per m | heme oxygenase activity ([1]; liver, 2 μmol/Kg s.c. soon after birth, day 2): 5.81 nanamoles heme oxygenase per m | heme oxygenase activity ([1]; liver, 2 μmol/Kg s.c. soon after birth, day 3): 5.60 nanamoles heme oxygenase per m | heme oxygenase activity ([1]; liver, 2 μmol/Kg s.c. soon after birth, day 5): 5.36 nanamoles heme oxygenase per m | heme oxygenase activity ([1]; liver, 2 μmol/Kg s.c. soon after birth, day 7): 4.42 nanamoles heme oxygenase per m | heme oxygenase activity ([1]; liver, 2 μmol/Kg s.c. soon after birth, day 10): 3.62 nanamoles heme oxygenase per m | heme oxygenase activity ([1]; liver, 2 μmol/Kg s.c. soon after birth, day 14): 2.24 nanamoles heme oxygenase per m | heme oxygenase activity ([1]; liver, 2 μmol/Kg s.c. soon after birth, day 21): 1.94 nanamoles heme oxygenase per m | heme oxygenase activity ([1]; liver, 2 μmol/Kg s.c. soon after birth, day 35): 2.38 nanamoles heme oxygenase per m | heme oxygenase activity ([1]; liver, 10 μmol/Kg s.c. soon after birth, day 2): 1.67 nanamoles heme oxygenase per m | heme oxygenase activity ([1]; liver, 10 μmol/Kg s.c. soon after birth, day 3): 1.43 nanamoles heme oxygenase per m | heme oxygenase activity ([1]; liver, 10 μmol/Kg s.c. soon after birth, day 5): 1.22 nanamoles heme oxygenase per m | heme oxygenase activity ([1]; liver, 10 μmol/Kg s.c. soon after birth, day 7): 0.85 nanamoles heme oxygenase per m | heme oxygenase activity ([1]; liver, 10 μmol/Kg s.c. soon after birth, day 10): 0.85 nanamoles heme oxygenase per m | heme oxygenase activity ([1]; liver, 10 μmol/Kg s.c. soon after birth, day 14): 0.78 nanamoles heme oxygenase per m | heme oxygenase activity ([1]; liver, 10 μmol/Kg s.c. soon after birth, day 21): 0.56 nanamoles heme oxygenase per m | heme oxygenase activity ([1]; liver, 10 μmol/Kg s.c. soon after birth, day 35): 1.23 nanamoles heme oxygenase per m | heme oxygenase activity ([1]; spleen, 2 μmol/Kg s.c. soon after birth, day 2): 7.33 nanamoles heme oxygenase per m | heme oxygenase activity ([1]; spleen, 2 μmol/Kg s.c. soon after birth, day 3): 11.13 nanamoles heme oxygenase per m | heme oxygenase activity ([1]; spleen, 2 μmol/Kg s.c. soon after birth, day 5): 15.13 nanamoles heme oxygenase per m | heme oxygenase activity ([1]; spleen, 2 μmol/Kg s.c. soon after birth, day 7): 11.18 nanamoles heme oxygenase per m | heme oxygenase activity ([1]; spleen, 2 μmol/Kg s.c. soon after birth, day 10): 13.87 nanamoles heme oxygenase per m | heme oxygenase activity ([1]; spleen, 2 μmol/Kg s.c. soon after birth, day 14): 16.62 nanamoles heme oxygenase per m | heme oxygenase activity ([1]; spleen, 2 μmol/Kg s.c. soon after birth, day 21): 10.28 nanamoles heme oxygenase per m | heme oxygenase activity ([1]; spleen, 2 μmol/Kg s.c. soon after birth, day 35): 15.55 nanamoles heme oxygenase per m | heme oxygenase activity ([1]; spleen, 10 μmol/Kg s.c. soon after birth, day 2): 3.97 nanamoles heme oxygenase per m | heme oxygenase activity ([1]; spleen, 10 μmol/Kg s.c. soon after birth, day 3): 4.62 nanamoles heme oxygenase per m | heme oxygenase activity ([1]; spleen, 10 μmol/Kg s.c. soon after birth, day 5): 2.76 nanamoles heme oxygenase per m | heme oxygenase activity ([1]; spleen, 10 μmol/Kg s.c. soon after birth, day 7): 6.19 nanamoles heme oxygenase per m | heme oxygenase activity ([1]; spleen, 10 μmol/Kg s.c. soon after birth, day 10): 9.53 nanamoles heme oxygenase per m | heme oxygenase activity ([1]; spleen, 10 μmol/Kg s.c. soon after birth, day 14): 10.34 nanamoles heme oxygenase per m | heme oxygenase activity ([1]; spleen, 10 μmol/Kg s.c. soon after birth, day 21): 8.06 nanamoles heme oxygenase per m | heme oxygenase activity ([1]; spleen, 10 μmol/Kg s.c. soon after birth, day 35): 13.72 nanamoles heme oxygenase per m | Serum Bilirubin ([2]; 2 μmol/Kg s.c. soon after birth, day 2): 0.39 milligrams per deciliter | Serum Bilirubin ([2]; 2 μmol/Kg s.c. soon after birth, day 3): 0.33 milligrams per deciliter | Serum Bilirubin ([2]; 2 μmol/Kg s.c. soon after birth, day 5): 0.28 milligrams per deciliter | Serum Bilirubin ([2]; 2 μmol/Kg s.c. soon after birth, day 7): 0.32 milligrams per deciliter | Serum Bilirubin ([2]; 2 μmol/Kg s.c. soon after birth, day 10): 0.33 milligrams per deciliter | Serum Bilirubin ([2]; 2 μmol/Kg s.c. soon after birth, day 14): 0.40 milligrams per deciliter | Serum Bilirubin ([2]; 10 μmol/Kg s.c. soon after birth, day 2): 0.43 milligrams per deciliter | Serum Bilirubin ([2]; 10 μmol/Kg s.c. soon after birth, day 3): 0.33 milligrams per deciliter | Serum Bilirubin ([2]; 10 μmol/Kg s.c. soon after birth, day 5): 0.24 milligrams per deciliter | Serum Bilirubin ([2]; 10 μmol/Kg s.c. soon after birth, day 7): 0.30 milligrams per deciliter | Serum Bilirubin ([2]; 10 μmol/Kg s.c. soon after birth, day 10): 0.33 milligrams per deciliter | Serum Bilirubin ([2]; 10 μmol/Kg s.c. soon after birth, day 14): 0.28 milligrams per deciliter

C=Cc1c2[n-]c(c1C)/C=c1\[n-]/c(c(C)c1C=C)=C\c1[n-]c(c(CCC(=O)O)c1C)C=c1[n-]/c(c(C)c1CCC(=O)O)=C\2.[Sn+4] [Sn-protoporphyrin, tin protoporphyrin IX]
activity compared with Cr-protoporphyrin ([3]; decreasing rate of heme metabolism): more active | effect on normal postnatal increase in hepatic heme oxygenase activity ([3]; neonatal rats, about 100 μmol/Kg s.c. at birth and 12, 24, 48, 72 hours, six week study): completely prevented the normal marked increase in hepatic heme oxygenase activity after birth | day at which hepatic heme oxygenase activity attained normal control levels [3, 6]: ~42 days | time hepatic heme oxygenase activity remained well below control levels [3, 6]: about three | hepatic heme oxygenase activity relative to controls ([3]; neonatal rats, about 100 μmol/Kg s.c. per injection, 1 day): less than half the levels of the controls | day until which low bilirubin concentration continued [4]: fourth | effect on serum bilirubin levels ([4]; 42 day study): immediate and significant lowering of serum bilirubin levels | effect on bilirubin production and heme oxygenase activity [5]: extremely effective | heme oxygenase activity (bilirubin produced), LIVER ([5]; sacrificed sixteen hours after treatment, separate livers (Experiment 1-3 = individual rats)): 0.95 nanamoles bilirubin formed per and 1.53 nanamoles bilirubin formed per | heme oxygenase activity (bilirubin produced), KIDNEY (COMBINED) ([5]; sacrificed sixteen hours after treatment, three combined kidneys): 0.055 nanamoles bilirubin formed per
